{"source": "patent US20090197811A1", "about": "“ORALLY ADMINISTERED PEPTIDES TO IMPROVE OR PREVENT HEPATIC FIBROSIS” (University of Southern California, priority 2007, published 2009)", "key": {"C57Bl/6J mice [1]": {"system": "C57Bl/6J mice", "assay": "Western diet model: liver histology, assessment of steatosis and inflammation", "format": "in vivo, mouse", "conditions": "for Fatty Change Degree of fat / Fatty Change Type (predominant type) / Inflammatory Clusters: individual mice", "protocol": "(§1) Studies were performed in male C5713L/6J mice (Jackson Laboratories, Bar Harbor Me.). Six groups were studied (n=3-5, see FIG. 1) with 4 mice per group at the outset, except for group 2, which was started with n=5; 1 mouse died in group 1. Groups 1, 2, and 3 received the Western diet for 9.5 months; during the last 2.5 months of the 9.5 months, group 2 received SR141716 10 mg/kg/day i.g., and group 3 received D-4F, 125 μg/mouse/day, in the drinking water. Groups 4, 5, and 6 received the Western diet for 7 months followed by standard chow for 2.5 months; during the 2.5 months on standard chow, group 5 received SR141716 and group 6 received D-4F as described for groups 2 and 3, respectively. Additional control groups were studied: 6-month old C57Bl/6J mice as age-matched controls (n=5) and C57Bl/6J mice that received the Western diet for 6 months (n=6).\nThe slides were coded, without the pathologist knowing the specific treatment group that the slides represented. The histology was graded according to a number of histologic features. The degree of fat was graded as to the approximate percentage of hepatocytes containing fat: 0, absent; +/−, less than 5%; 1+, 5-25%; 2+. 26-50%; 3+, 51-75%; 4+, >75%. The fat was also assessed as to whether it was totally macrovesicular, predominantly macrovesicular, totally microvesicular, predominantly microvesicular, or mixed macro- and microvesicular. In addition, the zone was assessed as to whether the fat was perivenular, periportal, diffuse, or focal. Inflammation was graded as absent, scanty (1 to 3 foci/slide), present (scattered, with 4 to 10 foci/slide), present + (scattered, >10 foci/slide but not numerous), and present ++ (numerous). The type of inflammation was graded as totally mononuclear, predominantly mononuclear, totally neutrophilic, predominantly neutrophilic, and mixed mononuclear-neutrophilic. The hydropic change of hepatocytes was graded as absent, mild, and moderate/severe, with the location noted as perivenular, focal or diffuse."}, "C57Bl/6J mice [2]": {"system": "C57Bl/6J mice", "assay": "Western diet model: biochemical findings and liver and body weights", "format": "in vivo, mouse", "conditions": "for GSH / TBARS: liver; for ALT / AST / Adiponectin / Cholesterol / Glucose / Insulin / Leptin / Triglycerides: serum", "protocol": "SR141716 was a kind gift from Sanofi-Aventis, France. SR141716 was dissolved in water with 0.1% Tween and given daily by gavage for 10 weeks. D-4F is an 18-mer of D-amino acids (Ac-D-W-F-K-A-F-Y-D-K-V-A-E-K-F-K-E-A-F-NH2)^4 (SEQ ID NO: 1) that was commercially synthesized (A & A Laboratories, San Diego Calif.) with 80% purity. D-4F was dissolved in the drinking water at a concentration of 60 μg/ml water for a calculated dose corrected for drug purity of 125 μg D-4F/mouse/day.\nThe high fat diet used was the RD “Western diet” (Research Diets, D12079B), which contains 41% of calories from fat, 43% calories from carbohydrate, and 17% of calories from protein); this diet was designed to approximate the “typical” human diet of North America and Europe.\nas §1\nSerum aspartate amino transferase (AST) and alanine aminotransferase (ALT) were measured with the Infinity AST and ALT liquid assay reagent (Thermo Electron Corporation, Louisville Colo., cat #TR70121 and TR71121). Serum triglycerides and cholesterol were measured with the Infinity cholesterol assay reagent (Thermo Electron Corporation, Louisville Colo., cat #TR22321 and TR13315). Serum glucose was measured with the Glucose (HK) assay kit (Sigma, St. Louis, Mo., cat #GAHK-20). Serum insulin was measured with the Mercodia Ultrasensitive mouse insulin ELISA kit (ALPCO Diagnostics, Salem N.H., cat #10 1150-01). The homeostasis model assessment insulin resistance index (HOMA-IR) was calculated as [fasting glucose (mmol/liter)*fasting insulin (microunits/ml)]/22.5^17, 18. Serum leptin was measured with the TiterZyme EIA mouse leptin kit (Assay Designs Inc, Ann Arbor Mich., cat #900-019). Serum adiponectin was measured with the mouse adiponectin kit (Biovendor LLC, Candler N.C., cat #RD 293023100). Thiobarbituric acid reactive substance (TBARS) was measured as previously described^19, 20; in brief, liver was homogenized and diluted 1:1 in 10% ice cold trichloroacetic acid. 0.5 ml supernatant or of a standard solution of 1,1,3,3-tetraethoxypropane was mixed with 0.5 ml of 0.6% (w/v) 4,6-dihydroxy-2-thiopyrimidine. The solution was boiled for 30 min, cooled and centrifuged. Absorbance was measured at 532 nm with a Shimadzu TV-2101 PC spectrophotometer. To measure hepatic glutathione (GSH), liver was homogenized and diluted 1:1 in 10% ice cold trichloroacetic acid. GSH in the supernatant was measured according to the recycling assay of Tietze^21."}, "[3]": {"conditions": "group 3 vs group 1, Western diet 9.5 months, D-4F last 2.5 months"}, "[4]": {"conditions": "7 months Western diet followed by 2.5 months Western diet + drug"}, "[5]": {"conditions": "7 months Western diet followed by 2.5 months chow + drug"}}, "note": "“And” between values parts separate entries of the source, which are not always exact repeats. Identical values can stand only once. Non-standard residues stand in square brackets, D forms with d."}
{"substance": "Ac-D-W-F-K-A-F-Y-D-K-V-A-E-K-F-K-E-A-F-NH2 (Ac-[dD][dW][dF][dK][dA][dF][dY][dD][dK][dV][dA][dE][dK][dF][dK][dE][dA][dF]-NH2; not fully specified; printed as Ac-D-W-F-K-A-F-Y-D-K-V-A-E-K-F-K-E-A-F-NH2) [D-4F]", "values": [{"measurement": "inflammation, histologically", "setting": "C57Bl/6J mice [1]; [3]", "value": "some evidence of a reduction"}, {"measurement": "steatosis, histologically", "setting": "C57Bl/6J mice [1]; [3]", "value": "no effect"}, {"measurement": "inflammation, histologically", "setting": "C57Bl/6J mice [1]; group 6 (switch to chow plus D-4F) vs group 4 (switch to chow)", "value": "perhaps a small decrease"}, {"measurement": "Fatty Change Degree of fat", "setting": "C57Bl/6J mice [1]; [4]", "value": 4}, {"measurement": "Fatty Change Type (predominant type)", "setting": "C57Bl/6J mice [1]; [4]", "value": "Macrovesicular"}, {"measurement": "Inflammatory Clusters", "setting": "C57Bl/6J mice [1]; [4]", "value": "3 (3×) and 2"}, {"measurement": "Fatty Change Degree of fat", "setting": "C57Bl/6J mice [1]; [5]", "value": "2 (2×) and 0 and 3"}, {"measurement": "Fatty Change Type (predominant type)", "setting": "C57Bl/6J mice [1]; [5]", "value": "Mixed"}, {"measurement": "Inflammatory Clusters", "setting": "C57Bl/6J mice [1]; [5]", "value": "1 and 2 (3×)"}, {"measurement": "steatohepatitis (summary)", "setting": "C57Bl/6J mice [1]; summary statement", "value": "did not alter steatohepatitis"}, {"measurement": "Body weight", "setting": "C57Bl/6J mice [2]; [4]", "value": "39.5 ± 0.8", "unit": "g"}, {"measurement": "HOMA-IR", "setting": "C57Bl/6J mice [2]; [4]", "value": "63.3 ± 23.5"}, {"measurement": "Liver weight", "setting": "C57Bl/6J mice [2]; [4]", "value": "2.42 ± 0.04", "unit": "g"}, {"measurement": "Body weight", "setting": "C57Bl/6J mice [2]; [5]", "value": "35.9 ± 3.2", "unit": "g"}, {"measurement": "HOMA-IR", "setting": "C57Bl/6J mice [2]; [5]", "value": "16.5 ± 2.2"}, {"measurement": "Liver weight", "setting": "C57Bl/6J mice [2]; [5]", "value": "1.67 ± 0.19", "unit": "g"}, {"measurement": "body weight, liver weight, serum transaminases, hyperglycemia, hyperinsulinemia, insulin resistance, overall hepatic oxidative stress", "setting": "C57Bl/6J mice [2]; [3]", "value": "no improvement"}, {"measurement": "leptin levels compared to mice on Western diet alone", "setting": "C57Bl/6J mice [2]; [3]", "value": "decreased by half"}, {"measurement": "total cholesterol compared to mice on Western diet alone", "setting": "C57Bl/6J mice [2]; [3]", "value": "decreased by half"}, {"measurement": "GSH", "setting": "C57Bl/6J mice [2]; [4]", "value": "50.1 ± 5.8", "unit": "nmole/mg protein"}, {"measurement": "TBARS", "setting": "C57Bl/6J mice [2]; [4]", "value": "29.4 ± 2.4", "unit": "nmol/g tissue"}, {"measurement": "GSH", "setting": "C57Bl/6J mice [2]; [5]", "value": "82.8 ± 5.2", "unit": "nmole/mg protein"}, {"measurement": "TBARS", "setting": "C57Bl/6J mice [2]; [5]", "value": "20.0 ± 0.6", "unit": "nmol/g tissue"}, {"measurement": "ALT", "setting": "C57Bl/6J mice [2]; [4]", "value": "277.3 ± 18.2", "unit": "U/L"}, {"measurement": "AST", "setting": "C57Bl/6J mice [2]; [4]", "value": "211.9 ± 19.1", "unit": "U/L"}, {"measurement": "Adiponectin", "setting": "C57Bl/6J mice [2]; [4]", "value": "15.3 ± 1.0", "unit": "µg/mL"}, {"measurement": "Cholesterol", "setting": "C57Bl/6J mice [2]; [4]", "value": "146.8 ± 2.1", "unit": "mg/dL"}, {"measurement": "Glucose", "setting": "C57Bl/6J mice [2]; [4]", "value": "231.2 ± 18.0", "unit": "mg/dL"}, {"measurement": "Insulin", "setting": "C57Bl/6J mice [2]; [4]", "value": "3.7 ± 1.1", "unit": "ng/mL"}, {"measurement": "Leptin", "setting": "C57Bl/6J mice [2]; [4]", "value": "17.49 ± 1.41", "unit": "ng/mL"}, {"measurement": "Triglycerides", "setting": "C57Bl/6J mice [2]; [4]", "value": "40.0 ± 6.7", "unit": "mg/dL"}, {"measurement": "ALT", "setting": "C57Bl/6J mice [2]; [5]", "value": "69.1 ± 21.5", "unit": "U/L"}, {"measurement": "AST", "setting": "C57Bl/6J mice [2]; [5]", "value": "104.2 ± 22.4", "unit": "U/L"}, {"measurement": "Adiponectin", "setting": "C57Bl/6J mice [2]; [5]", "value": "18.52 ± 1.5", "unit": "µg/mL"}, {"measurement": "Cholesterol", "setting": "C57Bl/6J mice [2]; [5]", "value": "120.8 ± 2.9", "unit": "mg/dL"}, {"measurement": "Glucose", "setting": "C57Bl/6J mice [2]; [5]", "value": "159.2 ± 2.4", "unit": "mg/dL"}, {"measurement": "Insulin", "setting": "C57Bl/6J mice [2]; [5]", "value": "1.46 ± 0.2", "unit": "ng/mL"}, {"measurement": "Leptin", "setting": "C57Bl/6J mice [2]; [5]", "value": "8.70 ± 1.43", "unit": "ng/mL"}, {"measurement": "Triglycerides", "setting": "C57Bl/6J mice [2]; [5]", "value": "49.1 ± 1.4", "unit": "mg/dL"}]}
